Measurements published in the supplement of paper PMC10307832.

Experiments:
Test in all cases: relative viability (nuclei count vs DMSO), 5 days (fraction); higher = more cells survive
[1] = compound: CC(C)CCN1c2nc(Nc3cc(F)c(O)c(F)c3)ncc2N(C)C(=O)C1C [BI-D1870]
How it was run: (§1)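 Vehicle-anchored 1536-well plates of lung cancer cell lines, held overnight at 37 °C, were pinned with five library-drug doses (not always all listed) spaced by √10. No medium change followed over the next 5 days, after which the cells were fixed, permeabilised and Hoechst-stained together and imaged at 4×. Nuclei were counted with MetaXpress, and viability is treated-well nuclei over vehicle-well nuclei, taken as a median across plates. Plates passed with control CV below 25% and at least one doubling.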

[2] = compound: O=c1ncccn1[C@@H]1O[C@H](CO)[C@@H](O)[C@H]1O [Zebularine]
How it was run: as §1

[3] = compound: O=c1ncccn1[C@@H]1O[C@H](CO)[C@@H](O)[C@H]1O [Zebularine] + CC1(C)CCC(c2ccc(Cl)cc2)=C(CN2CCN(c3ccc(C(=O)NS(=O)(=O)c4ccc(N[C@H](CCN5CCOCC5)CSc5ccccc5)c(S(=O)(=O)C(F)(F)F)c4)cc3)CC2)C1 [Navitoclax] (partner 0.5 µM)
How it was run: (§2)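 Five library-drug doses in √10 steps were combined with a fixed anchor-drug dose, or a single drug was given alone, by pin tool to lung cancer cell lines in 1536-well plates the day after seeding. Nuclei were stained and counted after 5 days. Relative viability is the nuclei count in treated wells over that in vehicle wells, taken as the median of duplicate plates.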

[4] = compound: CC(C)CCN1c2nc(Nc3cc(F)c(O)c(F)c3)ncc2N(C)C(=O)C1C [BI-D1870] + CC(=O)Nc1cccc(-n2c(=O)n(C3CC3)c(=O)c3c(Nc4ccc(I)cc4F)n(C)c(=O)c(C)c32)c1 [Trametinib] (partner 0.02 µM)
How it was run: as §2

Cell Line	relative viability ([1]; 0.04 µM)	relative viability ([1]; 0.1265 µM)	relative viability ([1]; 0.4 µM)	relative viability ([1]; 1.265 µM)	relative viability ([1]; 4 µM)	relative viability ([2]; 1 µM)	relative viability ([2]; 3.162 µM)	relative viability ([2]; 10 µM)	relative viability ([2]; 31.62 µM)	relative viability ([2]; 100 µM)	relative viability ([3]; first compound 1 µM)	relative viability ([3]; first compound 3.162 µM)	relative viability ([3]; first compound 10 µM)	relative viability ([3]; first compound 31.62 µM)	relative viability ([3]; first compound 100 µM)	relative viability ([4]; first compound 0.04 µM)	relative viability ([4]; first compound 0.1265 µM)	relative viability ([4]; first compound 0.4 µM)	relative viability ([4]; first compound 1.265 µM)	relative viability ([4]; first compound 4 µM)
PC-14	1.09	0.943	0.97	1.08	0.767	1.18	0.694	0.19	0.138	0.109	1.07	1.06	0.346	0.113	0.129	0.864	0.534	0.788	0.498	0.243
NCI-H1437	1.02	0.906	0.992	1.04	0.9	1.07	1	0.761	0.97	0.641	1.23	1.16		0.99	0.364	0.556	0.475	0.494	0.568	0.398
NCI-H460	1.04	0.96	0.96	0.999	0.703	1.07	1	0.662	0.498	0.096	1.26	1.18	0.0689	0.413	0.0857	0.133	0.117	0.126	0.105	0.0577
NCI-H1666	1.12	1.01	0.955	1.16	0.99	1.03	0.904	0.834	1.02	0.868	0.98	1.05	0.857	1.08	0.575	0.847	0.798	0.801	0.882	0.878
NCI-H1651	0.997	0.911	0.945	1.04	0.914	1.04	0.989	0.718	0.911	0.57	1.22	1.03		0.971	0.506	0.874	0.881	0.81	0.936	0.828
NCI-H1755	1.03	1.01	1.03	1.07	1.01	1.12	0.981	1.02	1.04	0.717	1.14	1.04	0.773	1.01	0.444	0.758	0.774	0.74	0.831	0.739
HARA	1.03	0.905	0.932	1.27	0.804	1.09	1.13		1.06	0.897	1.14	1.13		1.1	0.718	0.613	0.548	0.702	0.876	1.04
NCI-H596	0.986	0.912	0.939	1.08	1.03	1.12	0.954	0.781	1.06	0.989	0.974	0.9	0.799	0.984	0.893	0.95	0.773	0.846	0.804	0.762
NCI-H23	1.21	0.874	0.868	0.939	0.575	1.1	0.91	0.632	0.983	0.881	0.775	0.802		0.818	0.86	0.39	0.342	0.385	0.329	0.295
